Data on seven compounds can be found in patent USRE50528E1, “Compounds and compositions for modulating EGFR mutant kinase activities” (Yuhan Corporation, priority 2014, dated 2025).

The structures appear in SMILES notation. Where only a bound is given, the exact number is not on record here.

Assay [1] concerns the target T1, EGFR mutant T790M (Homo sapiens, UniProt P00533, T790M).
T1 construct: truncated human JAK3, EGFR mutants such as del E746-A750; purchased Carna Biosciences
The assay is described as follows: Kinase inhibition assay, EGFR mutant T790M.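 Further: truncated human EGFR mutant enzyme preincubated two hours with compound, then ATP plus ULight-PolyGT peptide for one hour, Europium-labeled antibody LANCE detection, IC50.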 The note with it: biochemical potency.

For assay [2], the target named is T2, EGFR mutant Del19 (E746-A750) (Homo sapiens, UniProt P00533, DEL746-750).
T2 construct: truncated human JAK3, EGFR mutants such as del E746-A750; purchased Carna Biosciences
The assay is described as follows: Kinase inhibition assay, EGFR del E746-A750.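 Further: truncated human EGFR mutant kinase, two-hour preincubation with compound, then one-hour reaction with ATP and ULight-PolyGT peptide, LANCE Europium-antibody phosphorylation readout, IC50.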 The class given is biochemical. Particulars: read-out: EGFR mutants Del19 (E746-A750).

Assay [3] addresses T3, EGFR mutant L858R (Homo sapiens, UniProt P00533, L858R).
T3 construct: truncated human JAK3, EGFR mutants such as del E746-A750; purchased Carna Biosciences
The assay is described as follows: Kinase inhibition assay, EGFR L858R.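 Further: truncated human EGFR L858R kinase with compound preincubation, ULight-PolyGT peptide phosphorylation read by Europium-antibody Lance detection, IC50.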 Particulars: read-out: EGFR mutants L858R. It is filed as biochemical.

The target of assay [4] is T4, EGFR mutant L858R/T790M (Homo sapiens, UniProt P00533, L858R/T790M).
T4 construct: truncated human JAK3, EGFR mutants such as del E746-A750; purchased Carna Biosciences
The assay is described as follows: Kinase inhibition assay, EGFR L858R/T790M.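 Further: truncated human enzyme preincubated two hours with compound, then one hour with one millimolar ATP and ULight-PolyGT peptide, Europium-labeled antibody detection, IC50.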 It is filed as biochemical. The note with it: read-out: EGFR mutants L858R/T790M.

For assay [5], the target named is T5, EGFR mutant Del19/T790M (Homo sapiens, UniProt P00533, DEL746-750/T790M).
T5 construct: truncated human JAK3, EGFR mutants such as del E746-A750; purchased Carna Biosciences
The assay is described as follows: Kinase inhibition assay, EGFR del E746-A750/T790M. It is filed as biochemical. The note with it: read-out: EGFR mutants Del19/T790M.

Assay [6] addresses T6, JAK3 (Homo sapiens, UniProt P52333).
T6 construct: EGFR and JAK3 (JH1domain-catalytic) kinases, and mutant forms thereof; purchased Carna Biosciences
The assay is described as follows: Kinase inhibition assay, JAK3.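 Further: IC50 against purified truncated human JAK3 preincubated with compound, then reacted with ATP and ULight-Jak1 peptide, phosphorylation read by Europium-labeled antibody LANCE detection.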 The note with it: biochemical potency.

Assay [7] concerns the target T7, SYK (Homo sapiens, UniProt P43405).
T7 construct: Purified human, full-length SYK, KDR; purchased Carna Biosciences
The assay is described as follows: Kinase inhibition assay, SYK.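 Further: purified full-length human SYK pre-incubated 30 min with compound, then ULight-TK peptide phosphorylation for 1 h, detected with Europium-labeled antibody in Lance buffer.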 The class given is biochemical. Particulars: biochemical potency.

In assay [8] the target is T8, KDR (Homo sapiens, UniProt P35968).
T8 construct: Purified human, full-length SYK, KDR; purchased Carna Biosciences
The assay is described as follows: Kinase inhibition assay, KDR.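 Further: purified full-length human KDR, 30 min preincubation with compound, then 1 h reaction with ATP and Ulight-Jak1 peptide substrate, phosphorylation read by Lance Europium antibody detection.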 It is filed as biochemical. Particulars: biochemical potency.

Assay [9] has as its system H2073 (EGFR wildtype). The assay is described as follows: Cell viability assay, H2073.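 Further: NSCLC cell line whose survival relies on wildtype EGFR, treated with serially diluted compound, cytotoxic effect judged from remaining cell viability.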 It is filed as cell-based. Particulars: NCI-H2073; cellular potency; 72-hour incubation; ATPLite.
For assay [10], the system named is PC9 (EGFR del E746-A750 mutant). The assay is described as follows: Cell viability assay, PC9.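 On all read-outs here: NSCLC PC9 cells, whose viability relies on EGFR del E746-A750, exposed to serially diluted compound for 72 h at 37 °C, ATPLite read-out, IC50, H2073 as EGFR wildtype line.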 The class given is cell-based. Particulars: for Selectivity over wildtype, Wildtype vs mutant H2073/PC9 (fold): cellular potency ratio; for IC50: cellular potency, 72-hour incubation, ATPLite, read-out: EGFR Mutants PC9.
Assay [11] deals with H1975 (EGFR L858R/T790M mutant). The assay is described as follows: Cell viability assay, H1975.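 On all read-outs here: NSCLC cells whose survival relies on EGFR L858R/T790M, exposed 72 h to serially diluted compound, ATP-based viability readout, with the H2073 line (wildtype EGFR dependent) as wildtype comparator.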 The class given is cell-based. Particulars: for IC50: Homo sapiens, NCI-H1975, cellular potency, 72-hour incubation, ATPLite, read-out: EGFR Mutants H1975; for Selectivity over wildtype, Wildtype vs mutant H2073/H1975 (fold): cellular potency ratio.
Assay [12] deals with T9, p-EGFR wildtype (Homo sapiens, UniProt P00533).
T9 construct: endogenous in cells; host or cells: H1299
The assay is described as follows: Western analysis, H1299 p-EGFR wildtype. It is filed as cell-based. Particulars: for IC50: molecular potency, 4 hours, 3 nM EGF ligand.

In assay [13] the target is T10, p-EGFR del E746-A750 (Homo sapiens, UniProt P00533, DEL746-750).
T10 construct: phosphorylation of mutant EGFR in NSCLC lines PC9; endogenous in cells; host or cells: PC9
The assay is described as follows: Western analysis, PC9 p-EGFR del E746-A750. It is filed as cell-based. Particulars: for Selectivity over wildtype: p-wildtype over p-EGFR del19: H1299 vs PC9; for IC50: molecular potency, 4 hours, read-out: PC9 p-EGFR del 19 (E746-A750).

Assay [14] addresses T11, p-EGFR L858R/T790M (Homo sapiens, UniProt P00533, L858R/T790M).
T11 construct: phosphorylation of mutant EGFR in NSCLC lines H1975; endogenous in cells; host or cells: H1975
The assay is described as follows: Western analysis, H1975 p-EGFR L858R/T790M. The class given is cell-based. Particulars: for Selectivity over wildtype: p-wildtype over p-EGFR L858R, T790M: H1299 vs H1975; for IC50: molecular potency, 4 hours.

T9 sequence (P00533 25-1210): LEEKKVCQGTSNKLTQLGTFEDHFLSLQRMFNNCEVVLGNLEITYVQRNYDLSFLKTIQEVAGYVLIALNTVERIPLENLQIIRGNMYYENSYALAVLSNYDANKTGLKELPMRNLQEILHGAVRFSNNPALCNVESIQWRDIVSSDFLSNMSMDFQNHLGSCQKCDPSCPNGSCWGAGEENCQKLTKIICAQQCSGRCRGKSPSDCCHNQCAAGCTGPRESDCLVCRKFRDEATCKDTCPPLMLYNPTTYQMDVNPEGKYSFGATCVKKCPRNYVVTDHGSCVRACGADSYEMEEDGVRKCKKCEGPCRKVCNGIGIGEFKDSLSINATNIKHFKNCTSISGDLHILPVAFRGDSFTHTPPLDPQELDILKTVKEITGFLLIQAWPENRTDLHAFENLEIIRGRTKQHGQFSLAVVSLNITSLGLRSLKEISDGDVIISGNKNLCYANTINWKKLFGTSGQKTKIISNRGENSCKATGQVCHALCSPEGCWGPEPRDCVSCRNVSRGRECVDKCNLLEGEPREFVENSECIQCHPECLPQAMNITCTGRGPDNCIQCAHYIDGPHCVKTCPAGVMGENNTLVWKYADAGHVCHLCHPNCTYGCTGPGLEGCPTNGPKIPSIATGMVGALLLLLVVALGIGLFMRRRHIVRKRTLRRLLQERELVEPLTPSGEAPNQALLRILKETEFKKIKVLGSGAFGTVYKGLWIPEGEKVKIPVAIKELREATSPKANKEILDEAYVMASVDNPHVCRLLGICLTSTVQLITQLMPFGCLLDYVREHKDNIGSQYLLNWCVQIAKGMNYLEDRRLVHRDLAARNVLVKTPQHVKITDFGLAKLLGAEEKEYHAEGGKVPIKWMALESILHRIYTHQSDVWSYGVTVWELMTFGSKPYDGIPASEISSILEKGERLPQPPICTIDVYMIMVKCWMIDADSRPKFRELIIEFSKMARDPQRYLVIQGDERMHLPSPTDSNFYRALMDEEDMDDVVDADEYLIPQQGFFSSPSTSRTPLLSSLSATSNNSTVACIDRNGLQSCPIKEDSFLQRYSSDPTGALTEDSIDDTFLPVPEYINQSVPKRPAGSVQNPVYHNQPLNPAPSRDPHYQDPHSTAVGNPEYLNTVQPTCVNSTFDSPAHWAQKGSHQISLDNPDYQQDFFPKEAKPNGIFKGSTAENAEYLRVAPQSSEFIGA
T8 sequence (P35968 20-1356): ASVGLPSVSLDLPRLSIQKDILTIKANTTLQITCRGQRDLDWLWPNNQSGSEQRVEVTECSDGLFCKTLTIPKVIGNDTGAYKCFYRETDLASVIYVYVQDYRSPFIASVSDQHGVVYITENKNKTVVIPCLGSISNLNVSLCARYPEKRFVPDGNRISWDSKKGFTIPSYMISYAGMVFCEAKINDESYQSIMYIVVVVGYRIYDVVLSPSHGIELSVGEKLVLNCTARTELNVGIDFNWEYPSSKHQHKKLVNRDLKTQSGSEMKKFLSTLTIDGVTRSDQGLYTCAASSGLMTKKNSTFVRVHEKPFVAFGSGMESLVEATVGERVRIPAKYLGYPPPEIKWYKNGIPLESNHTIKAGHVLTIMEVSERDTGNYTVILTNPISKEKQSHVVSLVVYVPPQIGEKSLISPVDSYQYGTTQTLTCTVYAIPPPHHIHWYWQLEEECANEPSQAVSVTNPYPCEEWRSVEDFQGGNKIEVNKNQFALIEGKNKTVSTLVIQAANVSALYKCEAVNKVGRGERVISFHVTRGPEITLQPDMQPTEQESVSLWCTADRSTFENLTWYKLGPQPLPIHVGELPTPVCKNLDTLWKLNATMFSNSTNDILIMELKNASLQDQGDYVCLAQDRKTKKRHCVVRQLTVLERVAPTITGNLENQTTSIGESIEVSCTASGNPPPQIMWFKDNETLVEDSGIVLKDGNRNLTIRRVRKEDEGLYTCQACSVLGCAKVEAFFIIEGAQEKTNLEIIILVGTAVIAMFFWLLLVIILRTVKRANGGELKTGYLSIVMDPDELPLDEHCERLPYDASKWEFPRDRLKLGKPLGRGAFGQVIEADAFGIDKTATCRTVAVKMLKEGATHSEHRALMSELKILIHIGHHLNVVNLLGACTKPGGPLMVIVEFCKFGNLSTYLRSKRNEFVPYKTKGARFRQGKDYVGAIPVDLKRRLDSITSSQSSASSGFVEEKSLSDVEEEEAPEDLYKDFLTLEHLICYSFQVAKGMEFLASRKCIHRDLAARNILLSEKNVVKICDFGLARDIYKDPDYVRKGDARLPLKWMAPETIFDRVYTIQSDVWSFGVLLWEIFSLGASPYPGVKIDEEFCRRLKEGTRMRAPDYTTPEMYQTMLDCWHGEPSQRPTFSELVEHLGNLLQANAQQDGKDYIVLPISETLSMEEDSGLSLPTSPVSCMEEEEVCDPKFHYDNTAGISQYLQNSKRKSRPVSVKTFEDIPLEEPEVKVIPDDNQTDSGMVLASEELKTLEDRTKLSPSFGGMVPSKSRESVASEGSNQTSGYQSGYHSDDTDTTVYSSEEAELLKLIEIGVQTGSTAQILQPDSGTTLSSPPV
T5 sequence (P00533 with tags, fused parts or gaps DEL746-750/T790M limits assumed): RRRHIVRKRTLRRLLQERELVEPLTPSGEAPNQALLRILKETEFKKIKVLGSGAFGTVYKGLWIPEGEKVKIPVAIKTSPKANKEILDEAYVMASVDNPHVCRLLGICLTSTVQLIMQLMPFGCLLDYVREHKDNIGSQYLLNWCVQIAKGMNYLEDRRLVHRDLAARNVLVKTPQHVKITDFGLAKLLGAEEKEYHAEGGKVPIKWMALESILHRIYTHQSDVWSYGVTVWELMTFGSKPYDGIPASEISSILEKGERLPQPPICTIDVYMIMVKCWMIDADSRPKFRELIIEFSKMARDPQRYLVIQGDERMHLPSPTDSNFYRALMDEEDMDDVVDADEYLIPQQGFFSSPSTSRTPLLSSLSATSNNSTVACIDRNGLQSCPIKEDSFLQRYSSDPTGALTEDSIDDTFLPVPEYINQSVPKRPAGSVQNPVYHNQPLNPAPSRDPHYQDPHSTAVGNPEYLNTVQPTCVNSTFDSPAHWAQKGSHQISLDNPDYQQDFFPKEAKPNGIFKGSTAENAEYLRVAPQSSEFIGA
T6 sequence (P52333 822-1111 limits assumed): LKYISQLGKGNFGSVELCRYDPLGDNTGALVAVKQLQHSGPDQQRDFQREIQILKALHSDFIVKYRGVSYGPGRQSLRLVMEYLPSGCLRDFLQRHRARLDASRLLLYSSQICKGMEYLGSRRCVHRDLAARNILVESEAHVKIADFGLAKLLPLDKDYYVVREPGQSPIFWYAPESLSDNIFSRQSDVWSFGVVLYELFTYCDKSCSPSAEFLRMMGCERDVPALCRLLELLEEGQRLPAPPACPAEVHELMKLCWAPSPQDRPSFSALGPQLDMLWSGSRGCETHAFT
T11 sequence (P00533 25-1210 T790M/L858R): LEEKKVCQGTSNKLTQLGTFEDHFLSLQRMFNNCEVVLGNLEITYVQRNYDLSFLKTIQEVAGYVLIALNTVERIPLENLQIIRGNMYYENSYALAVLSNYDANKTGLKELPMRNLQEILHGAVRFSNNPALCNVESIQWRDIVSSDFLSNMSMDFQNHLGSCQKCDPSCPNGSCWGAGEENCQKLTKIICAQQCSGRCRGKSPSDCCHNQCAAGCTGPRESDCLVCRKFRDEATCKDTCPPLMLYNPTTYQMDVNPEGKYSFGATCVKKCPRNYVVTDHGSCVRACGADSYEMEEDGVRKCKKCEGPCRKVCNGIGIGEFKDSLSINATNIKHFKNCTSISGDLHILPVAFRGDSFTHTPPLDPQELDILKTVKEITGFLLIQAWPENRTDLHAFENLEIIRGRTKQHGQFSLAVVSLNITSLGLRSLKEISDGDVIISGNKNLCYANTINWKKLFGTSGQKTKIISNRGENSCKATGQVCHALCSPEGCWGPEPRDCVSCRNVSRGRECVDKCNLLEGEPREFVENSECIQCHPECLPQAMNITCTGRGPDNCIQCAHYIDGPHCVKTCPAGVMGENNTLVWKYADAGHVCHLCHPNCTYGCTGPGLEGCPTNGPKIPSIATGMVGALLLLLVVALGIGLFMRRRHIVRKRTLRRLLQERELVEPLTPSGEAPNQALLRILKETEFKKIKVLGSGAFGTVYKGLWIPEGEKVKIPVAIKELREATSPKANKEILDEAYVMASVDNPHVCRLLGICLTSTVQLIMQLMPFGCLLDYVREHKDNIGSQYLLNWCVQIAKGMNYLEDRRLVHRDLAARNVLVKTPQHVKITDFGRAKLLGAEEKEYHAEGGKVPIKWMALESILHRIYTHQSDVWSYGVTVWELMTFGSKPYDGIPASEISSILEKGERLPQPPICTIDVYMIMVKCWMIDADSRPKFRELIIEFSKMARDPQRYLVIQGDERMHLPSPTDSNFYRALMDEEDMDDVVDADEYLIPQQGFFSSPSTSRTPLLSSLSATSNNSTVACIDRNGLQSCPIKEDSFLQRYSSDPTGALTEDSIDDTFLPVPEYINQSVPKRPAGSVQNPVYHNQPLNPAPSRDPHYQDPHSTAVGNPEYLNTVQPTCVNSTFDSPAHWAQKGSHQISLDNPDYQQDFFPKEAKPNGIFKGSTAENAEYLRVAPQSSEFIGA
T4 sequence (P00533 669-1210 T790M/L858R limits assumed): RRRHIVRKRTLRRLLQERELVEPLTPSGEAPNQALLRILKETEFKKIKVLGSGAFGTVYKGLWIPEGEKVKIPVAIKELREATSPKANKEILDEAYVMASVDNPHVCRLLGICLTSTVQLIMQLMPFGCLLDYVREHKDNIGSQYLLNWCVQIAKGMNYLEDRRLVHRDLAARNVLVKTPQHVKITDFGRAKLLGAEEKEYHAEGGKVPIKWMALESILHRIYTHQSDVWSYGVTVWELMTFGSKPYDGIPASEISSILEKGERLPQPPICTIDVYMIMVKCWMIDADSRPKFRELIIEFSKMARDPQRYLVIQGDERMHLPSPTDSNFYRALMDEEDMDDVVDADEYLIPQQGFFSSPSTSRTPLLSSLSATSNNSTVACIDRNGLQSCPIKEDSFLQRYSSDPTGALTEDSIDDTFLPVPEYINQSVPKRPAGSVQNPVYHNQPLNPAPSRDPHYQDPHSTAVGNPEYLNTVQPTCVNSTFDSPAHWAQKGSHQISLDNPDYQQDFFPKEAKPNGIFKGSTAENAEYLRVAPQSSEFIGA

Turning to `C=CC(=O)Nc1cc(Nc2nccc(-n3cc(CN4CCC4)c(C)n3)n2)c(OC)cc1N1CCOCC1` [Compound 14, N-(5-(4-(4-(azetidin-1-ylmethyl)-3-methyl-1H-pyrazol-1-yl)pyrimidin-2-ylamino)-4-methoxy-2-morpholinophenyl)acrylamide], the IC50 in assay [1], in assay [2], in assay [3], in [4], in assay [5] and in assay [6] was below 20 nM throughout. Moreover, the IC50 in [7] was 201 to 1000 nM; in assay [8], above 1000 nM; in [9], above 1000 nM; in assay [10], below 20 nM; in assay [11], 20 to 200 nM; in [12], above 1000 nM. In addition, the IC50 in assay [13] and in assay [14] was below 20 nM throughout. The “Selectivity over wildtype, Wildtype vs mutant H2073/PC9 (fold)” value (“Selectivity … vs mutant H2073/PC9 (fold)” below) in assay [10] is listed as above 200 fold. Besides, the “Selectivity over wildtype, Wildtype vs mutant H2073/H1975 (fold)” value (“Selectivity … vs mutant H2073/H1975 (fold)” below) in assay [11] is 20-100 fold. For the same compound, the “Selectivity over wildtype: p-wildtype over p-EGFR del19” value in [13] is above 200 fold. The “Selectivity over wildtype: p-wildtype over p-EGFR L858R, T790M” value in assay [14] is reported as 20-100 fold.
Consider `C=CC(=O)Nc1cc(Nc2ncc(C)c(-n3cc(CN4C[C@H](O)[C@H](OC)C4)c(C)n3)n2)c(OC)cc1N1CCOCC1` [Compound 26, N-(5-(4-(4-(((3S,4R)-3-hydroxy-4-methoxypyrrolidin-1-yl)methyl)-3-methyl-1H-pyrazol-1-yl)-5-methylpyrimidin-2-ylamino)-4-methoxy-2-morpholinophenyl)acrylamide], for which the IC50 in assay [1], in assay [2], in [3], in assay [4], in assay [5] and in [6] was below 20 nM in each case. In addition, the IC50 in assay [7] is 201 to 1000 nM; in assay [8], above 1000 nM; in assay [9] it was above 1000 nM; in assay [10], 20 to 200 nM; in [11], 20 to 200 nM; in [12] it was above 1000 nM. In addition, the IC50 in [13] and in [14] was below 20 nM in each case. For the same compound, the “Selectivity … vs mutant H2073/PC9 (fold)” value in assay [10] is on record as 20-100 fold. For the same compound, the “Selectivity … vs mutant H2073/H1975 (fold)” value in assay [11] was 101-200 fold. In addition, the “inhibition against p-EGFR wildtype (in words)” value in assay [12] (Western, FIG. 1) is reported as “not p-EGFR wildtype”. For the same compound, the “Selectivity over wildtype: p-wildtype over p-EGFR del19” value is above 200 fold in assay [13] and 572.4 fold in assay [13] (listed as compound 26). Besides, the “inhibition against p-EGFR del E746-A750 (in words)” value in assay [13] (Western, FIG. 1) was “potent inhibition”. The “Selectivity over wildtype: p-wildtype over p-EGFR L858R, T790M” value in assay [14] was above 200 fold; in assay [14] (listed as compound 26), 1440.3 fold. In addition, in assay [14] (Western, FIG. 1), the “inhibition against p-EGFR L858R/T790M (in words)” value is given as “potent inhibition”.
With `C=CC(=O)Nc1cc(Nc2ncc(C)c(-n3cc(CN(C)C)c(C)n3)n2)c(OC)cc1N1CCOCC1` [Compound 75, N-(5-(4-(4-((dimethylamino)methyl)-3-methyl-1H-pyrazol-1-yl)-5-methylpyrimidin-2-ylamino)-4-methoxy-2-morpholinophenyl)acrylamide], the IC50 in assay [1], in [2], in assay [3], in assay [4], in [5] and in assay [6] was below 20 nM each time. The IC50 was 20 to 200 nM in [7]; above 1000 nM in assay [8]; above 1000 nM in assay [9]; 20 to 200 nM in [10]; 20 to 200 nM in [11]. Besides, the “Selectivity … vs mutant H2073/PC9 (fold)” value in assay [10] is 101-200 fold. Besides, in assay [11], the “Selectivity … vs mutant H2073/H1975 (fold)” value was 101-200 fold.
On to `C=CC(=O)Nc1cc(Nc2ncc(C)c(-n3cc(CN4CCC4)c(C)n3)n2)c(OC)cc1N1CCOCC1` [Compound 76, N-(5-(4-(4-(azetidin-1-ylmethyl)-3-methyl-1H-pyrazol-1-yl)-5-methylpyrimidin-2-ylamino)-4-methoxy-2-morpholinophenyl)acrylamide], for which the IC50 in assay [1], in [2], in assay [3], in [4], in assay [5] and in [6] was below 20 nM throughout. For the same compound, the IC50 in [7] was 201 to 1000 nM; in assay [8] it was above 1000 nM; in [9] it was above 1000 nM; in assay [10], 20 to 200 nM; in [11], 20 to 200 nM. In assay [10], the “Selectivity … vs mutant H2073/PC9 (fold)” value is reported as 101-200 fold. The “Selectivity … vs mutant H2073/H1975 (fold)” value in [11] is on record as 101-200 fold.
On to `C=CC(=O)Nc1cc(Nc2nccc(-n3cc(CN(C)C)c(C)n3)n2)c(OC)cc1N1CCN(CCF)CC1` [Compound 79, N-(5-(4-(4-((dimethylamino)methyl)-3-methyl-1H-pyrazol-1-yl)pyrimidin-2-ylamino)-2-(4-(2-fluoroethyl)piperazin-1-yl)-4-methoxyphenyl)acrylamide], for which the IC50 in [1], in assay [2], in [3], in [4], in assay [5] and in assay [6] was below 20 nM in each case. The IC50 in assay [7] is 201 to 1000 nM; in assay [8], above 1000 nM; in assay [9], above 1000 nM; in assay [10] it was 20 to 200 nM; in assay [11], 20 to 200 nM. The “Selectivity … vs mutant H2073/PC9 (fold)” value in assay [10] is 101-200 fold. The “Selectivity … vs mutant H2073/H1975 (fold)” value in assay [11] was 101-200 fold.
In the case of `C=CC(=O)Nc1cc(Nc2ncc(C)c(-n3cc(CN4CCC4)c(C4CC4)n3)n2)c(OC)cc1N1CCOCC1` [Compound 123, N-(5-(4-(4-(azetidin-1-ylmethyl)-3-cyclopropyl-1H-pyrazol-1-yl)-5-methylpyrimidin-2-ylamino)-4-methoxy-2-morpholinophenyl)acrylamide], the IC50 in assay [1], in assay [2], in assay [3], in assay [4], in [5] and in assay [6] was below 20 nM throughout. The IC50 in assay [7] was 201 to 1000 nM; in assay [8] it was above 1000 nM; in [9], above 1000 nM; in [10], below 20 nM; in assay [11], below 20 nM. The “Selectivity … vs mutant H2073/PC9 (fold)” value in [10] was above 200 fold. In assay [11], the “Selectivity … vs mutant H2073/H1975 (fold)” value is on record as above 200 fold.
`C=CC(=O)Nc1cc(Nc2ncc(C)c(-n3cc(CN(C)C)c(C(C)C)n3)n2)c(OC)cc1N1CCOCC1` [Compound 124, N-(5-(4-(4-((dimethylamino)methyl)-3-isopropyl-1H-pyrazol-1-yl)-5-methylpyrimidin-2-ylamino)-4-methoxy-2-morpholinophenyl)acrylamide]: the IC50 in assay [1], in assay [2], in assay [3], in assay [4], in assay [5] and in [6] was below 20 nM in each case. In addition, the IC50 in [7] was 20 to 200 nM; in assay [8], above 1000 nM; in assay [9], above 1000 nM; in assay [10], below 20 nM; in [11], below 20 nM. Besides, the “Selectivity … vs mutant H2073/PC9 (fold)” value in assay [10] is above 200 fold. For the same compound, the “Selectivity … vs mutant H2073/H1975 (fold)” value in assay [11] is listed as above 200 fold.
